Assay results as given in ChEMBL document CHEMBL3507680, “University of Dundee, Gates Library screen for HepG2 cell viability”.

Test: Human HepG2 cell viability assay in 384 well format
Format: toxicity, cell-based
Parameters: dose 125 nL, time 70.5 hour; cytotoxicity at 70.5 h: concentration not given beside the values
Conditions: HepG2 cells, read-out: Inhibition

Structure (SMILES)	cytotoxicity at 70.5 h [%]
COC(=O)c1cccc(C(=O)N2CCN(c3ccc(OC)cc3)CC2)n1	-7.54
CN(C(=O)NCC1(CN2CCOCC2)CCCCC1)C1CC1	-4.71
COc1ccc(CN(C)Cc2cccc(C#N)c2)c(OC)c1	-3.94
CN(C)C(=O)CN1CCCC1c1cccc(Cc2ccccc2F)n1 (stereo not given)	0.856
CC(=O)NC1CCN(c2nc(N(C)C)nc3c2CCN(C(C)=O)C3)CC1	-7.29
Cn1nccc1C1CCN(CC(O)c2cccc(F)c2)CC1 (stereo not given)	-8.37
COc1cccc(CC2CCCN2Cc2nccn2C)c1 (stereo not given)	-5
CC(=O)Nc1c(C)noc1/C=C\c1ccc(S(=O)(=O)N2CCCC2)cc1	-3.48
Cc1c[nH]c(CN(C)C(=O)[C@@]23CNC[C@@H]2CN(c2ncccn2)C3)n1	-14
O=C(CCCNCc1ccc(Cl)c2cccnc12)NC1CC1	-1.79
CCNC(=O)N1CCC2(C1)c1ccccc1S(=O)(=O)N2CCC(C)C (stereo not given)	-12.9
O=C(NCc1nn(-c2ccccc2)c2c1CCC2)C1CC1	-3.11
c1cnc2c(c1)cc([C@H]1CCCO1)n2CCN1CCOCC1	-27.8
COC(=O)CCNC(=O)c1cc(-c2ccc(OC)cc2)nn1C	-3.5
CC[C@H](C)[C@H](N)C(=O)N1CC(=O)c2sc(Nc3ccc(F)cc3)nc2C1	7.24
Cc1cc(S(=O)(=O)N2CCCc3cc(Cl)ccc32)sc1C(=O)O	2.62
CCC(CO)N(Cc1cccs1)C(=O)CNS(=O)(=O)c1cccs1 (stereo not given)	-4.61
Cc1ccc(CN(C(=O)c2cccc(NC(N)=O)c2)C2CC2)o1	-10.5
C=C(C)COc1cccc(C(=O)N2CCC3(CC2)CN(C)CCN3C)c1	-7.19
COc1ccc(C(=O)C2CCCN(Cc3cccc(F)c3)C2)c(OC)c1 (stereo not given)	-0.757
CC(C)CC(C)NCc1cccnc1N1CCN(c2ccccn2)CC1 (stereo not given)	-12.3
Cc1ccc(N2C[C@H]3OCC[C@H]3[C@H](C(=O)NC3CCC3)C2)nn1	-13

Structure (SMILES)	cytotoxicity at 70.5 h [%]
CCc1n[nH]c(C2CN(C(=O)c3cncnc3CC)CCO2)n1 (stereo not given)	0.869
CCN(CCn1cccn1)Cc1nc(-c2cccs2)oc1C	-9.82
CN[C@@H](CO)C(=O)NCc1cc2n(n1)CCCN(C1CCCCC1)C2	-6.96
c1cc(CN2CCc3c(nnn3CC3CC3)C2COCC2CC2)co1 (stereo not given)	-14
CCc1ccc(S(=O)(=O)Nc2ccn(CC(=O)OC)n2)cc1	-4.63
Cc1nc(C)n(CC2CCCN(Cc3cccc(F)c3F)C2)n1 (stereo not given)	2.26
Cc1nn(C)c(C)c1C1SCC(=O)Nc2c1c(O)nn2C(C)C (stereo not given)	-28.8
COC(C)(C)c1noc(C2(C#N)CCCC2)n1	-1.33
CN1CCN(C(=O)[C@H]2C[C@@H]3CCN(c4ncc(F)cn4)C[C@@H]3O2)CC1	-13.1
N[C@H]1CN(C(=O)c2ccccc2OCc2ccccc2)C[C@@H]1C1CC1	-11.7
CCc1nc(C)cc(N2CCCC(C(=O)c3ccc(OC)cc3C)C2)n1 (stereo not given)	6.28
O=C(C(O)c1ccccc1Cl)N1CCCN(Cc2cccnc2)CC1 (stereo not given)	-4.87
Cc1nc(CN2C[C@@H]3CN(C(=O)CC(F)(F)F)C[C@@H]3C2=O)cs1	-9.18
N#Cc1ccccc1CN1C[C@H]2CC[C@@H]1CN(C(=O)c1cccnc1)C2	-10.2
c1csc(N2CCN(Cc3cc4n(n3)CCNC4)CC2)n1	1.93
CCn1cc(C(=O)NC2CCN(S(C)(=O)=O)CC2)c2ccccc21	-9.93
COc1cc(CN(C)[C@@H]2COC[C@H]2c2ccc(F)cc2)cc(OC)c1	0.803
CNc1ccc(C2CN(c3cc(C)ncn3)CCO2)nc1 (stereo not given)	1.5
Cc1nc(N2CCCC2)ccc1NCc1ccccn1	-96.9
COCc1ncc(CN2CC[C@@](O)(COC)C(C)(C)C2)cn1	-18.6
CCS(=O)(=O)CC(=O)NC(c1ccccc1)C1CCCC1 (stereo not given)	0.476
CNc1nc(CNC(=O)Nc2cccc(-n3ccc(C)n3)c2)cs1	0.812

Structure (SMILES)	cytotoxicity at 70.5 h [%]
F[C@@H]1CN(CC2CC2)C[C@@H]1OCc1nc2cnccc2[nH]1	-0.16
Cc1csc(N(C)C(=O)C2CC(=O)N(CCc3ccccc3)C2)n1 (stereo not given)	4.67
Cc1ccc(-n2cc(C(=O)NCc3nnc4n3CCCCC4)nn2)cc1	-3.85
COc1nc(C)c(C(=O)N2CCN(c3ncccc3C)CC2)s1	-4.24
Cc1cc(N2CC[C@H](O)C2)n2nc(C)c(C)c2n1	-1.97
CCOC(C)c1noc(CN(C)C(=O)C2C(C)(C)C2(C)C)n1 (stereo not given)	-2.89
Cc1nc(CN2C[C@@H]3CN(C(=O)NC(C)C)C[C@@H]3C2=O)cs1	-5.1
O=C(c1cc[nH]n1)N(Cc1ccc(F)cc1)CC1CC1	0.0679
CO[C@H]1CCN(S(=O)(=O)c2cn(C)cn2)[C@H]1Cc1cnn(C)c1	-14.3
COCCN1CCC2(CCCN(C(=O)c3ccoc3C)C2)C1=O (stereo not given)	-1.73
C=C(C)COc1cccc(C(=O)NCCCc2nnn[nH]2)c1	-12.4
CCc1sc(C(=O)Nc2cnn(CCN(C)C)c2)cc1C	-17.9
Cc1nc(CN(C)Cc2cn[nH]c2-c2ccc(F)cc2)c[nH]1	5.97
CC(C)Cc1cc(NC(=O)c2cc(Cl)c[nH]2)n(C)n1	-8.43
CCc1nc2n(n1)CC(NCC(=O)Nc1cc(C)nn1C)CC2 (stereo not given)	-6.14
COc1ccccc1CN1CCc2c(nc(-c3ccccn3)[nH]c2=O)C1	12.7
COCCN(C)C(=O)c1ccc(OC)cc1O	-2.43
CCn1cnnc1CNC(=O)N1CCC(OCc2ccccc2)CC1	-2.7
N#Cc1ccc(C(=O)N2CCCC3(C=Cc4ccccc4O3)CC2)cn1 (stereo not given)	7.89
CNC(=O)[C@@H]1CN(C(=O)C(C)C)C[C@H]1c1ccnc(N2CCCC2)n1	-3.61
Cc1cccc(-c2c[nH]c(C3CCCN3C(=O)Cn3cc(C)cn3)n2)c1 (stereo not given)	6.62
CN(C)Cc1ccc(C2CCCCN2C(=O)c2cccnn2)cc1 (stereo not given)	2.83

Structure (SMILES)	cytotoxicity at 70.5 h [%]
COc1ccc(CN2CCOC[C@H](OCCC(C)C)C2)cc1	-4.37
O=C1CC2(CCN(C(=O)c3ccccn3)CC2)Oc2c(Br)cc(Br)cc21	1.74
CCS(=O)(=O)N1CCC2(CC1)CC[C@@]1(C(=O)N(C)C)CN(C(C)=O)C[C@@H]21	13.5
COCC(C)NCc1nc(-c2ccc(C)cc2)c(-c2ccccn2)[nH]1 (stereo not given)	-1.81
OC(CN1CCN(CC2CC2)CC1)c1ccc(Br)cc1 (stereo not given)	-2.6
Cc1cccc(N2CCN(CCC(=O)NCc3nnc[nH]3)CC2)c1	-1.67
CCCS(=O)(=O)N1C[C@H](N(C)Cc2ccco2)[C@@H]2OCCC[C@@H]21	-6.06
COc1ccsc1C(=O)NC1CCN(c2cccc(F)c2)CC1	21.7
CC(CNC(=O)c1cccc(C#N)c1)N1CCc2ccccc21 (stereo not given)	-11.4
CC[C@@]1(O)CCN(C(=O)c2ccc(SC)cc2)C[C@H]1O	0.602
CC(C)CC(NC(=O)c1cccc(F)c1F)C(=O)Nc1cc[nH]n1 (stereo not given)	-1.3
CCc1cc(N[C@H]2CC[C@@H](N)CC2)n2nc(C)c(C)c2n1	-7.71
CCC(CNC(=O)c1ccccn1)N1CCc2ccccc2C1 (stereo not given)	10.5
CCCOCCN1CCc2[nH]c(-c3ccccc3)nc2C1	11.7
Cc1ccn(CC(=O)Nc2cc(-c3ccncc3)[nH]n2)n1	-2.4
Cn1cc(S(=O)(=O)N2CCCC2CC(=O)c2cccs2)cn1 (stereo not given)	-9.81
CN(C)C(=O)CN1CCCC2(CCN(c3ccc(C#N)cn3)C2)C1 (stereo not given)	8.76
COCCn1ccnc1C1CCN(C(=O)c2cccc(COC)n2)CC1	-4.2
CCOC(=O)CN1CCC2(CC1)CC(=O)c1ccc3ccccc3c1O2	-5.23
Cc1noc(C)c1CN1CC[C@H]2OCC[C@@]2(C(=O)NCC2CC2)C1	-5.64
CC(C(=O)Nc1ccon1)n1ccc(C(F)(F)F)n1 (stereo not given)	15.3
O=C1CC(c2ccccc2C(F)(F)F)c2sc(N3CCOCC3)nc2N1 (stereo not given)	-13.5

Structure (SMILES)	cytotoxicity at 70.5 h [%]
CCOCCCNC(=O)c1cc(C)nc(N2CCCCC2)n1	-6.17
COc1ccccc1CNc1cnn(CC(F)F)c1	1.56
COc1ccc(CN2CCN(C(C)=O)CC2)cc1SC(F)(F)F	0.0728
O=C(c1ccncc1)N1CCCC2(COCCN(c3ccccc3)C2)C1 (stereo not given)	-16.1
CC(C)N(C)Cc1cnc2n1CCN(Cc1ccsc1)C2	-8.42
COc1cc(-c2cc(N)ncn2)cc(OC)c1OC	-6.28
CC1(C)O[C@@](C)([C@H]2CC3(CCN(c4ncccn4)CC3)CO2)CC[C@@H]1O	-4.22
CC(C)CCC(=O)NCc1ccc(N2CCCCC2)cc1	-9.32
CC(C)c1nn(C)c(N(C)C)c1CNCc1cccnc1N(C)C	0.645
O=C(C1=CCCC1)N1CCO[C@H]2[C@@H](Oc3ccccn3)CC[C@@H]21	-0.715
N#Cc1cccnc1N1CCCN(C(=O)CCc2cccs2)CC1	-4.16
CC(C)C(C)NC(=O)c1cc(Br)c2c(c1)OCCO2 (stereo not given)	-4.14
CS(=O)(=O)N1CCN(CC(=O)Nc2cccc(Cl)c2)CC1	5.96
CC(C)(C)c1cc(NC(=O)CN2CCC(N3CCNC3=O)CC2)on1	17
N#Cc1ccc(OCCn2cccn2)cc1	-16.4
CCc1csc(C2CCCN(C(=O)c3ccc4c(c3)OCO4)C2)n1 (stereo not given)	13.2
O=C(COc1cccc2c1CCC2=O)NCc1ccccc1Cl	-10.6
CC(C)c1nc(CN(C)C(=O)CCc2ccc3c(c2)OCO3)cs1	-9.76
CC(C)=CCN1C[C@H]2CC[C@@H]1CN(C(=O)c1ccc(S(N)(=O)=O)cc1)C2	1.36
CCc1cc(N2CCC(NCCc3nc(C)c(C)s3)CC2)nc(C)n1	-12.2
c1cc(CNCC2CNc3ccnn3C2)cc(N2CCOCC2)n1 (stereo not given)	-5.11
CCN(Cc1nc2c(cnn2C)c(=O)[nH]1)c1cc(C)cc(C)c1	9.75
